Laboratory results as given in patent publication US20250152584A1, “NLRP3 INFLAMMASOME INHIBITOR AND USES THEREOF” (TransThera Sciences (Nanjing), Inc., priority 2022, published 2025).

How the values were obtained:
[1] = Pharmacokinetic study in SD male rats; assay type: in vivo; details: rat, plasma; for clearance: read-out: Cl—obs iv (clearance rate) (converted); for Vd: read-out: Vss iv (volume of distribution); for bioavailability: iv 1.0 mg/kg / po 5.0 mg/kg, read-out: F % (absolute bioavailability); for Tmax: median, read-out: Tmax po (peak time of plasma concentration); for Cmax: read-out: Cmax po (peak concentration)
Experimental: Experimental Example 3: Pharmacokinetic Study of Compounds in SD Male Rats
Compound 54, Compound 55, Compound 174, Compound 173, and Compound 264 were prepared into solutions with a mixed solvent formulated from 5% dimethyl sulfoxide, 20% (30% solutol) and 75% normal saline, respectively; the solution of each compound was administered to SD male rats by gavage at a dose of 5.0 mg/kg; and the time points for blood collection were: 15 min, 30 min, 1 h, 2 h, 4 h, 6 h, 8 h, 10 h and 24 h. The solution of the compound was administered to male SD rats by intravenous bolus at a dose of 1.0 mg/kg, and the time points for blood collection were as follows: 5 min, 15 min, 30 min, 1 h, 2 h, 4 h, 6 h, 8 h, 10 h, and 24 h.
On the day before administration, the jugular vein of each animal was cannulated; and after administration, about 300 μL of blood was collected through the jugular vein, and then placed in an anticoagulant tube containing EDTA-K2. Blood samples were centrifuged at 12,000 rpm for 10 min at 4° C. to obtain plasma samples, and plasma was prepared within 30 min after blood collection. The plasma was stored in a −80° C. freezer before testing.
• 1. The samples were taken from the −80° C. freezer, thawed naturally at room temperature, and then vortexed for 5 min. • 2. 30 μL of a plasma sample was precisely pipetted into a 1.5 mL centrifuge tube. • 3. 750 μL of an internal standard working solution (the acetonitrile solution of tolbutamide) at a concentration of […] was added and mixed well. • 4. After vortexing for 5 min, the mixture was centrifuged at 12,000 rpm for 5 min. • 5. 50 μL of the supernatant was accurately pipetted into a 96-well plate preloaded with water at 150 μL/well. • 6. Vortexing was performed for 5 min for sufficient mixing, and LC-MS/MS analysis was then conducted.
(§1) The results of the concentrations of the compounds under test were output using Analyst 1.6.3 of AB. Parameters such as mean, standard deviation, coefficient of variation was calculated by Microsoft Excel (parameters directly output by Analyst 1.6.3 needed no calculation), and PK parameters were calculated by WinNonlin Phenoix 8.2 software NCA (Tmax as the median).

[2] = Pharmacokinetic study in C57BL/6J mice; assay type: in vivo; details: mouse, plasma, C57BL/6J female mice; for Tmax: median, read-out: Tmax po (peak time of plasma concentration); for Cmax: read-out: Cmax po (peak concentration); for clearance: read-out: Cl—obs iv (clearance rate) (converted); for Vd: read-out: Vss iv (volume of distribution); for bioavailability: iv 5 mg/kg / po 10 mg/kg, read-out: F % (absolute bioavailability)
Experimental: Experimental Example 2: Pharmacokinetic Study of Compounds in C57BL/6J Mice
Compound 100, Compound 54, Compound 174, Compound 179, and Compound 253 were prepared into solutions with a mixed solvent formulated from 5% dimethyl sulfoxide, 20% (30% solutol) and 75% normal saline, respectively; the solution of each compound was administered to C57BL/6J female mice by gavage at a dose of 10 mg/kg; and the time points for blood collection were: 15 min, 30 min, 1 h, 2 h, 4 h, 6 h, 8 h and 24 h. The solution of the compound was administered to C57BL/6J female mice by intravenous bolus at a dose of 5 mg/kg, and the time points for blood collection were as follows: 5 min, 15 min, 30 min, 1 h, 2 h, 4 h, 6 h, 8 h, and 24 h.
Compound 1 was prepared into a solution with a mixed solvent formulated from 5% DME, 20% (30% solutol) and 75% normal saline; the solution of this compound was administered to C57BL/6J female mice by gavage at a dose of 10 mg/kg, and the time points for blood collection were: 15 min, 30 min, 1 h, 2 h, 4 h, 6 h, 8 h, and 24 h. The solution of the compound was administered to C57BL/6J female mice by intravenous bolus at a dose of 5 mg/kg, and the time points for blood collection were as follows: 5 min, 15 min, 30 min, 1 h, 2 h, 4 h, 6 h, 8 h, and 24 h.
Compound 195 was prepared into a solution with a mixed solvent formulated from 5% dimethyl sulfoxide, 20% PEG400 and 75% normal saline; the solution of this compound was administered to C57BL/6J female mice by gavage at a dose of 10 mg/kg; and the time points for blood collection were 15 min, 30 min, 1 h, 2 h, 4 h, 6 h, 8 h, and 24 b. The solution of the compound was administered to C57BL/6J female mice by intravenous bolus at a dose of 5 mg/kg, and the time points for blood collection were as follows: 5 min, 15 min, 30 min, 1 h, 2 b, 4 h, 6 h, 8 h, and 24 h.
Approximately 100 μL of blood was collected through the retroorbital venous plexus, and was then placed in an anticoagulant tube containing EDTA-K2. Blood samples were centrifuged at 12,000 rpm for 10 min at 4° C. to obtain plasma samples, and plasma was prepared within 30 min after blood collection. The plasma was stored in a −80° C. freezer before testing.
• 1. The samples were taken from the −80° C. freezer, thawed naturally at room temperature, and then vortexed for 5 min • 2. 10 μL of a plasma sample was precisely pipetted from different individuals into a 1.5 mL centrifuge tube. • 3. 300 μL of an internal standard working solution (the acetonitrile solution of tolbutamide) at a concentration of […] was added and mixed well. • 4. After vortexing for 5 min, the mixture was centrifuged at 12,000 rpm for 5 min. • 5. 50 μL of the supernatant was accurately pipetted into a 96-well plate preloaded with water at 150 μL/well. • 6. Vortexing was performed for 5 min for sufficient mixing, and LC-MS/MS analysis was then conducted.
as §1

[3] = intravenous bolus 1.0 mg/kg, read-out: AUClast iv (area under the drug-time curve for 0-24 h)
[4] = intravenous bolus 1.0 mg/kg, read-out: tz1/2 iv (terminal elimination half-life) (converted)
[5] = po, gavage 5.0 mg/kg, read-out: AUClast po (area under the drug-time curve for 0-24 h)
[6] = po, gavage 5.0 mg/kg, read-out: tz1/2 po (terminal elimination half-life) (converted)
[7] = po, gavage 10 mg/kg, read-out: AUClast po (area under the drug-time curve for 0-24 h)
[8] = po, gavage 10 mg/kg, read-out: tz1/2 po (terminal elimination half-life) (converted)
[9] = intravenous bolus 5 mg/kg, read-out: AUClast iv (area under the drug-time curve for 0-24 h)
[10] = intravenous bolus 5 mg/kg, read-out: tz1/2 iv (terminal elimination half-life) (converted)

Row | SMILES | AUC(0-t) [1, 3] | clearance ([1]; intravenous bolus 1.0 mg/kg) | Vd ([1]; intravenous bolus 1.0 mg/kg) | half-life [1, 4] | bioavailability [1] | Tmax ([1]; po, gavage 5.0 mg/kg) | AUC(0-t) [1, 5] | Cmax ([1]; po, gavage 5.0 mg/kg) | half-life [1, 6] | Tmax ([2]; po, gavage 10 mg/kg) | AUC(0-t) [2, 7] | Cmax ([2]; po, gavage 10 mg/kg) | half-life [2, 8] | AUC(0-t) [2, 9] | clearance ([2]; intravenous bolus 5 mg/kg) | Vd ([2]; intravenous bolus 5 mg/kg) | half-life [2, 10] | bioavailability [2]
1 | C#Cc1ccc(-c2nnc(N[C@@H]3CCCN(C)C3)cc2C2CC2)c(O)c1 [Compound 173, (R)-2-(4-cyclopropyl-6-((1-methylpiperidin-3-yl)amino)pyridazin-3-yl)-5-ethynylphenol] | 1100 ng·h/mL | 14.3 mL/min/kg | 6.92 L/kg | 6.13 h | 85.6% | 4 h | 4690 ng·h/mL | 395 ng/mL | 5.72 h | – | – | – | – | – | – | – | – | –
2 | C#Cc1ccc(-c2nnc(N[C@@H]3CCCN(C)C3)nc2C2CC2)c(O)c1 [Compound 179, (R)-2-(5-cyclopropyl-3-((1-methylpiperidin-3-yl)amino)-1,2,4-triazin-6-yl)-5-ethynylphenol] | – | – | – | – | – | – | – | – | – | 0.5 h | 3860 ng·h/mL | 1120 ng/mL | 2.19 h | 2470 ng·h/mL | 32.8 mL/min/kg | 5.14 L/kg | 2.01 h | 79.2%
3 | C#Cc1ccc(-c2nnc(N[C@@H]3CCCN(CCO)C3)cc2C)c(O)c1 [Compound 253, (R)-5-ethynyl-2-(6-((1-(2-hydroxyethyl)piperidin-3-yl)amino)-4-methylpyridazin-3-yl)phenol] | – | – | – | – | – | – | – | – | – | 0.5 h | 6900 ng·h/mL | 2320 ng/mL | 3.49 h | 3200 ng·h/mL | 25.5 mL/min/kg | 2.76 L/kg | 1.5 h | 106%
4 | CC#Cc1ccc(-c2nnc(N[C@@H]3CCCN(C)C3)cc2C2CC2)c(O)c1 [Compound 264, (R)-2-(4-cyclopropyl-6-((1-methylpiperidin-3-yl)amino)pyridazin-3-yl)-5-(propyl-1-alkyn-1-yl)phenol] | 811 ng·h/mL | 17.5 mL/min/kg | 12.5 L/kg | 8.89 h | 72.8% | 4 h | 3120 ng·h/mL | 230 ng/mL | 7.26 h | – | – | – | – | – | – | – | – | –
5 | C#Cc1ccc(-c2nnc(N[C@@H]3CCCN(C)C3)c3ccccc23)c(O)c1 [Compound 100, (R)-5-ethynyl-2-(4-((1-methylpiperidin-3-yl)amino)phthalazin-1-yl)phenol] | – | – | – | – | – | – | – | – | – | 2 h | 10100 ng·h/mL | 1530 ng/mL | 2.76 h | 6360 ng·h/mL | 13.1 mL/min/kg | 3.16 L/kg | 3.04 h | 79.4%
6 | C#Cc1ccc(-c2nnc(N[C@@H]3CCCN(C)C3)c3c2CCCC3)c(O)c1 [Compound 1, (R)-5-ethynyl-2-(4-((1-methylpiperidin-3-yl)amino)-5,6,7,8-tetrahydrophthalazin-1-yl)phenol] | – | – | – | – | – | – | – | – | – | 0.25 h | 1890 ng·h/mL | 428 ng/mL | 3 h | 1820 ng·h/mL | 44 mL/min/kg | 5.22 L/kg | 3.85 h | 49.9%
7 | C#Cc1ccc(-c2nnc(N[C@H]3C[C@@](C)(O)C3)cc2C)c(O)c1 [Compound 55, 5-ethynyl-2-(6-(((cis)-3-hydroxyl-3-methylcyclobutyl)amino)-4-methylpyridazin-3-yl)phenol] | 5130 ng·h/mL | 3.17 mL/min/kg | 1.12 L/kg | 5.24 h | 163% | 2 h | 38500 ng·h/mL | 3050 ng/mL | 7.18 h | – | – | – | – | – | – | – | – | –
